In ChEMBL document CHEMBL1201862, “PubChem BioAssay data set” (2004):
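1) Cells in 96-well plates. 2) Compound, 48 h, 5 concentrations. 3) Linear interpolation between surrounding doses. 4) Unreached endpoint = highest concentration. Here, GI50 denotes the concentration required for 50% inhibition of growth.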 Calls of active or inactive are those of the source. Cut-off read from the data, not from the text of the source: active = GI50 up to about 1.1 µM and inactive = higher.

How the values were obtained:
Assay in all cases: NCI-60 cell line screen, 48 h
SK-MEL-28 = test system: SK-MEL-28
COLO 205 = test system: COLO 205
OVCAR-3 = test system: OVCAR-3
A549 = test system: A549
CCRF-CEM = test system: CCRF-CEM
U-251 = test system: U-251
MOLT-4 = test system: MOLT-4
A498 = test system: A498
HCT-116 = test system: HCT-116
OVCAR-8 = test system: OVCAR-8
SF-539 = test system: SF-539
LXFL 529 = test system: LXFL 529
HT-29 = test system: HT-29
HCT-15 = test system: HCT-15
SN12C = test system: SN12C
SF-268 = test system: SF-268
UO-31 = test system: UO-31
SNB-19 = test system: SNB-19
NCI-H460 = test system: NCI-H460
TK-10 = test system: TK-10
SW-620 = test system: SW-620
CAKI-1 = test system: CAKI-1
HOP-62 = test system: HOP-62
K562 = test system: K562
SK-OV-3 = test system: SK-OV-3
KM-20L2 = test system: KM-20L2
M19-MEL = test system: M19-MEL
HOP-92 = test system: HOP-92
DMS-273 = test system: DMS-273
HL-60 = test system: HL-60
HCC 2998 = test system: HCC 2998
SK-MEL-2 = test system: SK-MEL-2
786-0 = test system: 786-0
OVCAR-4 = test system: OVCAR-4
ACHN = test system: ACHN
SF-295 = test system: SF-295
M14 = test system: M14
LOX IMVI = test system: LOX IMVI
SR = test system: SR
NCI-H522 = test system: NCI-H522
RPMI-8226 = test system: RPMI-8226
RXF 393 = test system: RXF 393
NCI-H23 = test system: NCI-H23
EKVX = test system: EKVX
SNB-78 = test system: SNB-78
IGROV-1 = test system: IGROV-1
KM12 = test system: KM12
Malme-3M = test system: Malme-3M
UACC-62 = test system: UACC-62
UACC-257 = test system: UACC-257
OVCAR-5 = test system: OVCAR-5
NCI-H226 = test system: NCI-H226
SNB-75 = test system: SNB-75
SK-MEL-5 = test system: SK-MEL-5
DLD-1 = test system: DLD-1
DMS-114 = test system: DMS-114

With `COC1OC(CBr)C(OC(=O)c2ccccc2)C(OS(=O)(=O)c2ccc(C)cc2)C1Br` (centres undefined) the GI50 (SK-MEL-28) was > 100 µM (inactive), the GI50 (COLO 205) was > 100 µM (inactive) and the GI50 (OVCAR-3) was > 100 µM (inactive). The GI50 (A549) was > 100 µM (inactive), the GI50 (CCRF-CEM) was > 100 µM (inactive) and the GI50 (U-251) was > 100 µM (inactive). For the same compound, the GI50 (MOLT-4) was > 100 µM (inactive), the GI50 (A498) was > 100 µM (inactive) and the GI50 (HCT-116) was > 100 µM (inactive). For the same compound, the GI50 (OVCAR-8) was > 100 µM (inactive), the GI50 (SF-539) was > 100 µM (inactive) and the GI50 (LXFL 529) was > 100 µM (inactive). For the same compound, the GI50 (HT-29) was > 100 µM (inactive), the GI50 (HCT-15) was over 100 µM and the GI50 (SN12C) was > 100 µM (inactive). The GI50 (SF-268) was > 100 µM (inactive), the GI50 (UO-31) was > 100 µM (inactive) and the GI50 (SNB-19) was > 100 µM (inactive). The GI50 (NCI-H460) was > 100 µM (inactive), the GI50 (TK-10) was > 100 µM (inactive) and the GI50 (SW-620) was > 100 µM (inactive). The GI50 (CAKI-1) was > 100 µM (inactive), the GI50 (HOP-62) was > 100 µM (inactive) and the GI50 (K562) was > 100 µM (inactive). The GI50 (SK-OV-3) was > 10 µM (inactive), the GI50 (KM-20L2) was > 100 µM (inactive) and the GI50 (M19-MEL) was > 100 µM (inactive). For the same compound, the GI50 (HOP-92) was 70.1 µM (inactive), the GI50 (DMS-273) was > 100 µM (inactive) and the GI50 (HL-60) was > 100 µM (inactive). For the same compound, the GI50 (HCC 2998) was > 100 µM (inactive), the GI50 (SK-MEL-2) was > 100 µM (inactive) and the GI50 (786-0) was > 100 µM (inactive). The GI50 (OVCAR-4) was > 100 µM (inactive), the GI50 (ACHN) was > 100 µM (inactive) and the GI50 (SF-295) was > 100 µM (inactive). For the same compound, the GI50 (M14) was > 100 µM (inactive), the GI50 (LOX IMVI) was > 100 µM (inactive) and the GI50 (SR) was > 100 µM (inactive). For the same compound, the GI50 (NCI-H522) was > 100 µM (inactive), the GI50 (RPMI-8226) was > 100 µM (inactive) and the GI50 (RXF 393) was > 100 µM (inactive). The GI50 (NCI-H23) was > 100 µM (inactive), the GI50 (EKVX) was > 100 µM (inactive) and the GI50 (SNB-78) was > 100 µM (inactive). The GI50 (IGROV-1) was > 10 µM (inactive), the GI50 (KM12) was > 100 µM (inactive) and the GI50 (Malme-3M) was > 100 µM (inactive). The GI50 (UACC-62) was > 10 µM (inactive) and the GI50 (UACC-257) was > 100 µM (inactive).
`O=[N+]([O-])c1ccc2occ3c2c1CCC3` was tested, and the GI50 (SK-MEL-28) was > 100 µM (inactive), the GI50 (COLO 205) was > 100 µM (inactive) and the GI50 (OVCAR-3) was > 100 µM (inactive). The GI50 (A549) was > 100 µM (inactive), the GI50 (CCRF-CEM) was > 100 µM (inactive) and the GI50 (U-251) was > 100 µM (inactive). For the same compound, the GI50 (OVCAR-5) was 86.1 µM (inactive), the GI50 (MOLT-4) was > 100 µM (inactive) and the GI50 (NCI-H226) was 40 µM (inactive). The GI50 (A498) was > 100 µM (inactive), the GI50 (HCT-116) was > 100 µM (inactive) and the GI50 (OVCAR-8) was > 100 µM (inactive). The GI50 (SF-539) was > 100 µM (inactive), the GI50 (LXFL 529) was > 100 µM (inactive) and the GI50 (HT-29) was > 100 µM (inactive). For the same compound, the GI50 (HCT-15) was over 100 µM, the GI50 (SN12C) was > 100 µM (inactive) and the GI50 (SF-268) was > 100 µM (inactive). The GI50 (UO-31) was 71.6 µM (inactive), the GI50 (SNB-19) was > 100 µM (inactive) and the GI50 (NCI-H460) was > 100 µM (inactive). For the same compound, the GI50 (TK-10) was > 100 µM (inactive), the GI50 (SNB-75) was 24.4 µM (inactive) and the GI50 (SW-620) was > 100 µM (inactive). The GI50 (SK-MEL-5) was > 100 µM (inactive), the GI50 (HOP-62) was > 100 µM (inactive) and the GI50 (K562) was > 100 µM (inactive). For the same compound, the GI50 (SK-OV-3) was > 100 µM (inactive), the GI50 (M19-MEL) was > 100 µM (inactive) and the GI50 (HOP-92) was 35.2 µM (inactive). The GI50 (DMS-273) was > 100 µM (inactive), the GI50 (DLD-1) was > 100 µM (inactive) and the GI50 (HL-60) was > 100 µM (inactive). The GI50 (HCC 2998) was > 100 µM (inactive), the GI50 (SK-MEL-2) was > 100 µM (inactive) and the GI50 (786-0) was > 100 µM (inactive). The GI50 (OVCAR-4) was > 100 µM (inactive), the GI50 (ACHN) was > 100 µM (inactive) and the GI50 (SF-295) was > 100 µM (inactive). For the same compound, the GI50 (M14) was > 100 µM (inactive), the GI50 (LOX IMVI) was > 100 µM (inactive) and the GI50 (SR) was > 100 µM (inactive). The GI50 (NCI-H522) was > 100 µM (inactive), the GI50 (RPMI-8226) was > 100 µM (inactive) and the GI50 (RXF 393) was > 100 µM (inactive). For the same compound, the GI50 (NCI-H23) was > 100 µM (inactive), the GI50 (EKVX) was > 100 µM (inactive) and the GI50 (SNB-78) was > 100 µM (inactive). The GI50 (IGROV-1) was > 100 µM (inactive), the GI50 (KM12) was > 100 µM (inactive) and the GI50 (Malme-3M) was > 100 µM (inactive). The GI50 (UACC-62) was > 100 µM (inactive), the GI50 (UACC-257) was > 100 µM (inactive) and the GI50 (DMS-114) was > 100 µM (inactive).
